According to patent US20160175225A1, “Peptides and Their Use in the Treatment of Skin” (AVON PRODUCTS, INC., priority 2014, published 2016):

test system: Human dermal fibroblast cells; test: Pro-collagen I secretion by human dermal fibroblasts (HTRF human pro-collagen I kit); format: cell-based; settings: percent change relative to vehicle control; 48 h; concentration not given (tested at 0.00001%, 0.0001%, 0.001%)
Experimental: (§1) Human dermal fibroblast cells were grown in a 96 well plate in DMEM media (available from Corning, N.Y.) supplemented with 10% Fetal Bovine Serum (FBS) and L-glutamine (0.07×10^5 cells/plate). After reaching about 75% confluence, cells were transferred into DMEM media without FBS and incubated for 4-6 hours. Next, cells were treated with a peptide at 0.00001%, 0.0001%, 0.001% final concentration in DMEM media without FBS for 48 h. After treatment the media were collected, and cell viability was measured using MTT. Amount of collagen secreted was tested in the media using HTRF human pro-collagen I kit (available from Cisbio Inc., Bedford, Mass.). Amount of secreted Hyaluronic Acid (HA) was tested in the media using HA Elisa kit (available from Corgenix, Broomfield, Colo.).
(§2) Results are summarized in Table 5 below as percent change of pro-collagen I and/or HA production relative to vehicle control using the following keys with the peptide concentration provided in parentheses: […]

Substance | Increase in Pro-Collagen I Production
Ala-Glu-Cys-Lys (AECK) [peptide derived from PDGF] | 0 (0: <10%)
EASAEPE | 0 (0: <10%)
GDALQPE | 0 (0: <10%)
LENTKRS | 0 (0: <10%)
Leu-Arg-Leu-Lys (LRLK) [peptide derived from GDF11 and TGFβ] | 0 (0: <10%)
Met-Val-Val (MVV) [peptide derived from GDF11] | 0 (0: <10%)
NRNV: peptide sequence NRNV, origin PDGF, tested in Table 5 | 0 (0: <10%)
QPED: peptide sequence QPED, origin GDF11, tested in Table 5 | 0 (0: <10%)
RKIE: peptide sequence RKIE, origin PDGF, tested in Table 5 | 0 (0: <10%)
RTPKISKPIKFELSG [Arg-Thr-Pro-Lys-Ile-Ser-Lys-Pro-Ile-Lys-Phe-Glu-Leu-Ser-Gly, peptide derived from CTGF] | 0 (0: <10%)

same assay, conditions: percent change relative to vehicle control; 48 h; peptide concentration 0.00001%

Substance | Increase in Pro-Collagen I Production
TAKDGAP [Thr-Ala-Lys-Asp-Gly-Ala-Pro, peptide derived from CTGF] | + (0.00001%) (+: 10-30%)

same assay, conditions: percent change relative to vehicle control; 48 h; peptide concentration 0.001%

Substance | Increase in Pro-Collagen I Production
IFGGTVYRS [Ile-Phe-Gly-Gly-Thr-Val-Tyr-Arg-Ser, peptide derived from CTGF] | + (0.001%) (+: 10-30%)
QILSKLRL [Gln-Ile-Leu-Ser-Lys-Leu-Arg-Leu, peptide derived from GDF11 and TGFβ] | + (0.001%) (+: 10-30%)

test system: Human dermal fibroblast cells; test: Hyaluronic acid (HA) secretion by human dermal fibroblasts (HA Elisa kit); format: cell-based; settings: percent change relative to vehicle control; 48 h; concentration not given (tested at 0.00001%, 0.0001%, 0.001%)
Experimental: as §1, §2

Substance | Increase in HA Production
EASAEPE | 0 (0: <20%)
GDALQPE | 0 (0: <20%)
LENTKRS | 0 (0: <20%)
NRNV: peptide sequence NRNV, origin PDGF, tested in Table 5 | 0 (0: <20%)
QILSKLRL [Gln-Ile-Leu-Ser-Lys-Leu-Arg-Leu, peptide derived from GDF11 and TGFβ] | 0 (0: <20%)
QPED: peptide sequence QPED, origin GDF11, tested in Table 5 | 0 (0: <20%)
RKIE: peptide sequence RKIE, origin PDGF, tested in Table 5 | 0 (0: <20%)

same assay, conditions: percent change relative to vehicle control; 48 h; peptide concentration 0.0001%

Substance | Increase in HA Production
Met-Val-Val (MVV) [peptide derived from GDF11] | + (0.0001%) (+: 20-50%)

same assay, conditions: percent change relative to vehicle control; 48 h; peptide concentration 0.001%

Substance | Increase in HA Production
Ala-Glu-Cys-Lys (AECK) [peptide derived from PDGF] | +++ (0.001%) (+++:90-150%)
IFGGTVYRS [Ile-Phe-Gly-Gly-Thr-Val-Tyr-Arg-Ser, peptide derived from CTGF] | ++ (0.001%) (++:50-90%)
Leu-Arg-Leu-Lys (LRLK) [peptide derived from GDF11 and TGFβ] | + (0.001%) (+: 20-50%)
RTPKISKPIKFELSG [Arg-Thr-Pro-Lys-Ile-Ser-Lys-Pro-Ile-Lys-Phe-Glu-Leu-Ser-Gly, peptide derived from CTGF] | + (0.001%) (+: 20-50%)
TAKDGAP [Thr-Ala-Lys-Asp-Gly-Ala-Pro, peptide derived from CTGF] | ++ (0.001%) (++:50-90%)
